Data on 30 compounds can be found in patent US9023809B2, “Phenylalanine dipeptide derivatives, compositions and use thereof” (The Key Laboratory of Chemistry For Natural Products of …, priority 2008, dated 2015).

In brackets after ≈: the same amount, converted by molar mass. Several values for one entry are separate records, joined by “and”; a condition that tells them apart may be missing. Equal values may be shown once. Where a SMILES comes first, the peptide text is derived from it. [ ]: non-standard residue; d: D form. The star is where a group is joined. Phe(4-NO2) = N[C@@H](Cc1ccc([N+](=O)[O-])cc1)C(=O)O; Phe(4-NH2) = Nc1ccc(C[C@H](N)C(=O)O)cc1; 4Abz = Nc1ccc(C(=O)O)cc1; Propionyl = CCC(=O)*; Bz = O=C(c1ccccc1)*

One data set relates to 2.2.15 cells. In words: Cytotoxicity (TC50, median toxic concentration) in 2.2.15 cells. The data set is classed as cell-based. How it is done: (§1) Cell control wells were simultaneously set up. […] IC50 and SI were calculated, respectively.
Another data set has as its system HBV DNA replication. In words: In vitro anti-HBV: inhibition of HBV DNA replication in 2.2.15 cells (dot blot). The format is cell-based, hepatitis B virus. Conditions: day 8, dot blot; for IC50: Hepatitis B virus, 192 h. As to the method:
as §1

Regarding `COC(=O)[C@H](Cc1ccccc1)NC(=O)[C@H](Cc1ccccc1)NC(=O)c1ccc(F)cc1` [Example 03, methyl N-(N-4-fluoro-benzoyl-L-phenylalanyl)-L-phenylalaninate], the TC50 in the data set with 2.2.15 cells is 17.81 µg/mL (≈ 39.7 µM). Moreover, the half-maximal inhibitory concentration (IC50) – broadly, the concentration at which inhibition is half-maximal – in the data set with HBV DNA replication stood at 0.63 µg/mL (≈ 1.4 µM).

As for `COC(=O)[C@H](Cc1ccc(O)cc1)NC(=O)[C@H](Cc1ccccc1)NC(=O)c1ccccc1` [Example 04, methyl N-(N-benzoyl-L-phenylalanyl)-L-tyrosinate] (Bz-Phe-Tyr-OMe), the melting point (usually the temperature, or range, at which the solid turns liquid) is 184 to 186 °C. Also, the TC50 with 2.2.15 cells is 450.67 µg/mL (≈ 1010 µM). Moreover, the IC50 with HBV DNA replication was determined as 51.8 µg/mL (≈ 116 µM).

`Cc1cccc(C(=O)N[C@@H](Cc2ccccc2)C(=O)N[C@H](CO)Cc2ccccc2)c1` [Example 05, N-(N-3-methyl-benzoyl-L-phenylalanyl)-L-phenylalaninol] registered a melting point of 177 to 178.5 °C. The same compound had a TC50 in the data set with 2.2.15 cells of 77.04 µg/mL (≈ 185 µM). This compound also yielded an IC50 in the data set with HBV DNA replication of 25.2 µg/mL (≈ 60.5 µM).

Take `O=C(N[C@@H](Cc1ccccc1)C(=O)N[C@H](CO)Cc1ccccc1)c1ccc(Cl)cc1` [Example 07, N-(N-4-chloro-benzoyl-L-phenylalanyl)-L-phenylalaninol]: the melting point is 211.5 to 214 °C. In addition, the TC50 with 2.2.15 cells was 28.74 µg/mL (≈ 65.8 µM). Also, the midpoint of inhibition with HBV DNA replication, the IC50, lay at 1.02 µg/mL (≈ 2.33 µM).

Compound `COC(=O)[C@H](Cc1ccc(O)cc1)NC(=O)[C@H](Cc1ccc([N+](=O)[O-])cc1)NC(=O)c1ccccc1` [Example 14, methyl N-(N-benzoyl-4-nitro-L-phenylalanyl)-L-tyrosinate] (Bz-[Phe(4-NO2)]-Tyr-OMe) registered a melting point of 200 to 202 °C. The same compound showed a TC50 in the data set on 2.2.15 cells of 53.42 µg/mL (≈ 109 µM). For the same compound, the IC50 in the data set on HBV DNA replication was found to be 1.16 µg/mL (≈ 2.36 µM).

For `O=C(N[C@@H](Cc1ccc(O)cc1)C(=O)N[C@H](CO)Cc1ccccc1)c1ccc(Cl)cc1` [Example 19, N-(N-4-chloro-benzoyl-L-tyrosyl)-L-phenylalaninol], the TC50 in the data set with 2.2.15 cells is 587.06 µg/mL (≈ 1300 µM). For the same compound, the IC50 in the data set with HBV DNA replication was determined as 103 µg/mL (≈ 228 µM).

For the compound `COC(=O)[C@H](Cc1ccccc1)NC(=O)[C@H](Cc1ccc(O)cc1)NC(=O)c1ccc(Cl)cc1` [Example 20, methyl N-(N-4-chloro-benzoyl-L-tyrosyl)-L-phenylalaninate], the melting point is 203.5 to 205 °C. Also, in the data set with 2.2.15 cells, the TC50 is 198.46 µg/mL (≈ 413 µM). Moreover, the concentration for half-maximal inhibition (IC50) in the data set on HBV DNA replication amounted to 48.5 µg/mL (≈ 101 µM).

Take `O=C(N[C@@H](Cc1ccc(O)cc1)C(=O)N[C@H](CO)Cc1ccccc1)c1ccccc1Cl` [Example 22, N-(N-2-chloro-benzoyl-L-tyrosyl)-L-phenylalaninol]: the melting point was in the range of 168 to 169 °C. The same compound displayed a TC50 in the data set with 2.2.15 cells of 346.68 µg/mL (≈ 765 µM). Further, in the data set on HBV DNA replication, the IC50 was found to be 106 µg/mL (≈ 234 µM).

As to `COC(=O)[C@H](Cc1ccccc1)NC(=O)[C@H](Cc1ccc(O)cc1)NC(=O)c1ccccc1Cl` [Example 23, methyl N-(N-2-chloro-benzoyl-L-tyrosyl)-L-phenylalaninate], the melting point fell in the range of 175.5 to 177.5 °C. In the data set with 2.2.15 cells, this compound showed a TC50 of 240.38 µg/mL (≈ 500 µM). The compound also showed an IC50 in the data set on HBV DNA replication of 52 µg/mL (≈ 108 µM).

Regarding `O=C(N[C@@H](Cc1ccc(O)cc1)C(=O)N[C@H](CO)Cc1ccccc1)c1ccc(F)cc1` [Example 24, N-(N-4-fluoro-benzoyl-L-tyrosyl)-L-phenylalaninol], the melting point lay within 194.5 to 195.5 °C. The compound further registered a TC50 with 2.2.15 cells of 396.81 µg/mL (≈ 909 µM). Besides, the midpoint of inhibition in the data set with HBV DNA replication, the IC50, lay at 96 µg/mL (≈ 220 µM).

Compound `COC(=O)[C@H](Cc1ccccc1)NC(=O)[C@H](Cc1ccc(O)cc1)NC(=O)c1ccc(F)cc1` [Example 25, methyl N-(N-4-fluoro-benzoyl-L-tyrosyl)-L-phenylalaninate] showed a melting point of 186.5 to 189 °C. The compound also yielded a TC50 with 2.2.15 cells of 574.76 µg/mL (≈ 1240 µM). This compound returned an IC50 in the data set with HBV DNA replication of 68.7 µg/mL (≈ 148 µM).

In the case of `O=C(N[C@@H](Cc1ccccc1)C(=O)N[C@H](CO)Cc1ccccc1)c1ccc(O)cc1` [Example 27, N-(N-4-hydroxyl-benzoyl-L-phenylalanyl)-L-phenylalaninol], the melting point lay in the range of 223 to 225 °C. Moreover, in the data set on 2.2.15 cells, the TC50 was 441.29 µg/mL and 456.75 µg/mL.

On to `COC(=O)[C@H](Cc1ccc(O)cc1)NC(=O)[C@H](Cc1ccccc1)NC(=O)c1ccc(NC(C)=O)cc1` [Example 36, methyl N-[N-(4-acetamido-benzoyl)-L-phenylalanyl]-L-tyrosinate] (Ac-[4Abz]-Phe-Tyr-OMe), for which the melting point is 215.5 to 217 °C. For the same compound, the TC50 with 2.2.15 cells was 388.03 µg/mL (≈ 771 µM). The same compound came in with an IC50 in the data set with HBV DNA replication of 4.56 µg/mL (≈ 9.06 µM).

In turn, `O=C(N[C@H](CO)Cc1ccccc1)[C@H](Cc1ccc(O)cc1)NCc1ccncc1` [Example 47, N-(N-isonicotinyl-L-tyrosyl)-L-phenylalaninol] showed a melting point of 210 to 212 °C. Besides, the TC50 with 2.2.15 cells worked out at 256.78 µg/mL (≈ 633 µM).

On to `CN(C)Cc1ccc(C(=O)N[C@@H](Cc2ccccc2)C(=O)N[C@H](CO)Cc2ccccc2)cc1` [Example 49, N-[N-(4-dimethylaminomethyl-benzoyl)-L-phenylalanyl]-L-phenylalaninol], for which the TC50 in the data set with 2.2.15 cells was 86.23 µg/mL (≈ 188 µM). This compound had an IC50 in the data set with HBV DNA replication of 7.28 µg/mL (≈ 15.8 µM).

Compound `CC(=O)Nc1ccc(C[C@H](NC(=O)c2ccccc2)C(=O)N[C@H](COC(C)=O)Cc2ccccc2)cc1` [Example 54, N-(N-benzoyl-4-acetamido-L-phenylalanyl)-O-acetyl-L-phenylalaninol] showed a TC50 with 2.2.15 cells of 43.11 µg/mL (≈ 85.9 µM). For the same compound, inhibition in the data set on HBV DNA replication was half-maximal at 0.82 µg/mL (≈ 1.63 µM) (IC50).

As to `CC(=O)OC[C@H](Cc1ccccc1)NC(=O)[C@H](Cc1ccccc1)NC(=O)c1ccccc1` [Example 55, N-(N-benzoyl-L-phenylalanyl)-O-acetyl-L-phenylalaninol], the TC50 in the data set with 2.2.15 cells was determined as 53.42 µg/mL (≈ 120 µM). Moreover, inhibition with HBV DNA replication was half-maximal at 4.96 µg/mL (≈ 11.2 µM) (IC50).

`COC(=O)[C@H](Cc1ccc(N)cc1)NC(=O)[C@H](Cc1ccccc1)NC(=O)c1ccccc1.Cl` [Example 58, methyl N-(N-benzoyl-L-phenylalanyl)-4-amino-L-phenylalaninate hydrochloride] (Bz-Phe-[Phe(4-NH2)]-OMe) registered a melting point of 173 to 175 °C. The TC50 in the data set on 2.2.15 cells was 28.74 µg/mL.

The compound `COC(=O)[C@H](Cc1ccc(NC(C)=O)cc1)NC(=O)[C@H](Cc1ccccc1)NC(=O)c1ccccc1` [Example 59, methyl N-(N-benzoyl-L-phenylalanyl)-4-acetamido-L-phenylalaninate] (Bz-Phe-[Phe(4-NH2)](Ac)-OMe) returned a melting point of 228 to 229.5 °C. Moreover, the TC50 with 2.2.15 cells stood at 258.69 µg/mL (≈ 531 µM).

`COC(=O)[C@H](Cc1ccccc1)NC(=O)[C@H](Cc1ccc(OC(C)=O)c(NC(C)=O)c1)NC(=O)c1ccccc1` [Example 63, methyl N-(N-benzoyl-O-acetyl-3-acetamido-L-tyrosyl)-L-phenylalaninate] gave a TC50 with 2.2.15 cells of 358.02 µg/mL (≈ 656 µM). This compound also showed an IC50 with HBV DNA replication of 53.1 µg/mL (≈ 97.4 µM).

In turn, `CCC(=O)Nc1ccc(C[C@H](NC(=O)[C@H](Cc2ccccc2)NC(=O)c2ccccc2)C(=O)OC)cc1` [Example 64, methyl N-(N-benzoyl-L-phenylalanyl)-4-propionamido-L-phenylalaninate] (Bz-Phe-[Phe(4-NH2)](Propionyl)-OMe) showed a melting point of 244.5 to 246 °C. Also, the TC50 with 2.2.15 cells was determined as 58.54 µg/mL (≈ 117 µM).

`CC(=O)c1ccc(C[C@@H](CO)NC(=O)[C@H](Cc2ccccc2)NC(=O)c2ccccc2)cc1` [Example 69, N-(N-benzoyl-L-phenylalanyl)-4-acetyl-L-phenylalaninol] had a melting point of 235.5 to 238 °C. Moreover, the TC50 in the data set with 2.2.15 cells was 75.46 µg/mL (≈ 170 µM).

On to `COC(=O)[C@H](Cc1ccc(OC)cc1)NC(=O)[C@H](Cc1ccccc1)NC(=O)c1ccccc1` [Example 71, methyl N-(N-benzoyl-L-phenylalanyl)-O-methyl-L-tyrosinate] (Bz-Phe-Tyr(Me)-OMe), for which the TC50 in the data set on 2.2.15 cells came to 388.03 µg/mL (≈ 843 µM). In the data set with HBV DNA replication, this compound yielded a 50% inhibitory concentration (IC50) of 6.62 µg/mL (≈ 14.4 µM).

Consider `CN(C)CCOc1ccc(C(=O)N[C@@H](Cc2ccccc2)C(=O)N[C@H](CO)Cc2ccccc2)cc1` [Example 77, N-[N-4-(2-dimethylamino-ethoxyl)-benzoyl-L-phenylalanyl]-L-phenylalaninol], for which the TC50 in the data set with 2.2.15 cells was 160.25 µg/mL (≈ 327 µM). For the same compound, the “Inhibition of DNA Replication IC50” value in the data set with HBV DNA replication turned out to be 13.51 µg/mL.

Take `COC(=O)[C@H](Cc1ccccc1)NC(=O)[C@H](Cc1ccccc1)NC(=O)c1ccc(OCCN(C)C)cc1` [Example 78, methyl N-[N-4-(2-dimethylamino-ethoxyl)-benzoyl-L-phenylalanyl]-L-phenylalaninate]: the TC50 in the data set on 2.2.15 cells worked out at 257.31 µg/mL (≈ 497 µM). Moreover, the “Inhibition of DNA Replication IC50” value in the data set on HBV DNA replication worked out at 54.28 µg/mL.

The compound `COc1ccc(C[C@H](NC(=O)[C@H](Cc2ccccc2)NC(=O)c2ccccc2)C(=O)[O-])cc1.[Na+]` [Example 79, N-(N-benzoyl-L-phenylalanyl)-O-methyl-L-tyrosine sodium salt] (Bz-Phe-Tyr(Me)-OH) came in with a TC50 in the data set with 2.2.15 cells of 86.23 µg/mL. In the data set with HBV DNA replication, this compound had an IC50 of 9.59 µg/mL.

As for `O=C(O)CCC(=O)Nc1ccc(C[C@H](NC(=O)c2ccccc2)C(=O)N[C@H](CO)Cc2ccccc2)cc1` [Example 83, N-[N-benzoyl-4-(3-carboxyl-propionamido)-L-phenylalanyl]-L-phenylalaninol], the TC50 in the data set on 2.2.15 cells was >1000 µg/mL. For the same compound, the half-inhibitory concentration (IC50) in the data set on HBV DNA replication worked out at 253 µg/mL (≈ 488 µM).

In the data set on 2.2.15 cells, `CN(C)c1ccc(C[C@H](NC(=O)c2ccccc2)C(=O)N[C@H](CO)Cc2ccccc2)cc1` [Example 84, N-(N-benzoyl-4-dimethylamino-L-phenylalanyl)-L-phenylalaninol] gave a TC50 of 86.23 µg/mL (≈ 194 µM). This compound also returned an IC50 in the data set on HBV DNA replication of 1.44 µg/mL (≈ 3.23 µM).

Turning to `O=C(N[C@@H](Cc1ccccc1)C(=O)N[C@@H](Cc1ccccc1)C(=O)O)c1ccccc1` [Example 86, N-(N-benzoyl-L-phenylalanyl)-L-phenylalanine] (Bz-Phe-Phe-OH), the TC50 in the data set on 2.2.15 cells worked out at 130.56 µg/mL (≈ 313 µM). In the data set with HBV DNA replication, this compound gave an IC50 of 10.6 µg/mL (≈ 25.4 µM).

Turning to `O=C(N[C@@H](Cc1ccc([N+](=O)[O-])cc1)C(=O)N[C@@H](Cc1ccccc1)C(=O)O)c1ccccc1` [Example 88, N-(N-benzoyl-4-nitro-L-phenylalanyl)-L-phenylalanine] (Bz-[Phe(4-NO2)]-Phe-OH), the TC50 with 2.2.15 cells was 388.03 µg/mL (≈ 841 µM). In the data set with HBV DNA replication, this compound came in with an IC50 of 25 µg/mL (≈ 54.2 µM).
